Results published in US4269831A, “Topical dermatological method of use of an androstenopyrazole” (priority 1979, dated 1981).

How the values were obtained:
[1] = tested on: hair growth on backs of male adrenalectomized Sprague-Dawley rats; test: Reduction in hair growth in male adrenalectomized rats, topical (Table VII); assay type: in vivo; conditions: 0.1% solution topical
Excerpt: Hair was clipped from the backs of male Sprague-Dawley rats, having a mean body weight of 300 g., three weeks after adrenalectomy. The clipped area (4 cm.×4 cm.) was medicated with approximately 500 microliters of 0.1% solution of the compound of Formula I, or hydrocortisone or 500 microliters of ethanol alone for a two-week pretreatment period. The clipped area was then depilated and the medication with either solution or ethanol alone was continued for 4 weeks. The density of hair growth was scored visually at weekly intervals and at termination of the experiment on a scale of 0 to 4 (0, no hair growth; 4, complete hair regrowth). Skinfold thickness was also measured using a micrometer at the end of the experiment, which was conducted blind.

[2] = target: T1, hamster flank organ cytosol receptor (Mesocricetus auratus, UniProt A0A1U7QL32); test: Binding competition with 3H-dihydrotestosterone in hamster flank organ cytosol in vitro (Table VI); design: species or system Syrian golden hamsters; conditions: 3H-DHT 2 nM, two hours, no antagonist 13.96
T1 construct: The homogenate was centrifuged (120,000×g for 45 min.) and the cytosol was frozen and stored at -70° C; from tissue; host or cells: flank organ cytosol of castrated male Syrian golden hamsters
T1 sequence (A0A1U7QL32 1-900): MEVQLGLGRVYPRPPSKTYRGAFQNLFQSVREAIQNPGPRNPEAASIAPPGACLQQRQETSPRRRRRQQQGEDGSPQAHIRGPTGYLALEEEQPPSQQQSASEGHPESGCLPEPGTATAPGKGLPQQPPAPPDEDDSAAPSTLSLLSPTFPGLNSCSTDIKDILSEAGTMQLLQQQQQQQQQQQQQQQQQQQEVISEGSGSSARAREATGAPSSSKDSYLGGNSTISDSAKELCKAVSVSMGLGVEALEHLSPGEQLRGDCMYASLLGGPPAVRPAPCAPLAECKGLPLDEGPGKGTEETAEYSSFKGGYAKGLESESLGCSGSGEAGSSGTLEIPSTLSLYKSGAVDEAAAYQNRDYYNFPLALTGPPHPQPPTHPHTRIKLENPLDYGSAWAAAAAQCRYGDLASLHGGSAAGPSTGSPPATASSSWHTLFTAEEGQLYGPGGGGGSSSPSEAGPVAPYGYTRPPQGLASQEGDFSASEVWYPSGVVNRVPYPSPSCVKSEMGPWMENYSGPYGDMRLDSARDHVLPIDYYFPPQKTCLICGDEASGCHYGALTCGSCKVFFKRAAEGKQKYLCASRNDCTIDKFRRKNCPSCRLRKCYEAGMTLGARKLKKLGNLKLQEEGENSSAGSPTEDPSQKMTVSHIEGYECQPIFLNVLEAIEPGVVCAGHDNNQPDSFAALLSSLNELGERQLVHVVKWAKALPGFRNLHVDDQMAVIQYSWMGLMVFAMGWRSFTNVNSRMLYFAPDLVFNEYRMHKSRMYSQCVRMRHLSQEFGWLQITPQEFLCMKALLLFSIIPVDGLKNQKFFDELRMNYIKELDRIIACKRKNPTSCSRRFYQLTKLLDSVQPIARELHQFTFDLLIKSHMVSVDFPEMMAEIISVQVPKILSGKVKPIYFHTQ
Procedure: The flank organs of twelve mature male Syrian golden hamsters each weighing from 120 to 140 g. and having been castrated 16-18 hours earlier were excised, dissected under the microscope to remove the dermis and the muscle layers and homogenized in buffer (1.5 volumes of 50 mM Tris, 0.5 mM mercaptoethanol and 0.1 mM ethylenediamine tetracetate, pH 7.4). The homogenate was centrifuged (120,000×g for 45 min.) and the cytosol was frozen and stored at -70° C. Six of the cytosol samples were thawed at room temperature, pooled and used for evaluation of in vitro binding.

[3] = tested on: castrated immature male Syrian golden hamsters; test: Systemic antiandrogenic and glucocorticoid activity, subcutaneous, with testosterone propionate (Table IV); assay type: in vivo; conditions: mean, n=8
Procedure: A solution of the compound of Formula I in cottonseed oil was administered subcutaneously at 1 ml./kg. to castrated immature male Syrian golden hamsters having a mean initial body weight of 79 g. for 14 consecutive days concurrently with testosterone propionate. On the day following the last medication the hamsters were killed, the flank organ parameters were determined and the weights of seminal vesicles, adrenals and thymus glands were obtained.

[4] = tested on: supracaudal glands of mature male guinea pigs; test: Topical study on supracaudal glands of guinea pigs; assay type: in vivo; conditions: 21 days
Procedure: The supracaudal glands of mature male guinea pigs having a mean initial body weight of 431 g. (8 guinea pigs per group) were medicated topically with a solution of the compound of Formula I (400 micrograms) in ethanol (10 microliters). Guinea pigs treated with ethanol served as controls. After 21 days of treatment the guinea pigs were killed and the areas of the supracaudal glands (pi×long radius×short radius) were measured in situ with calipers. The weights of seminal vesicles, adrenals and thymus glands were also measured.

[5] = tested on: hair on the back of mature male Syrian golden hamsters; test: Reduction of hair regrowth on clipped back of hamsters; assay type: in vivo; conditions: 200 microliters on 9 cm2, 30 daily applications, vehicle 323±49 mg
Excerpt: The hair on the back of mature male Syrian golden hamsters having a mean initial body weight of 107 g. (7 hamsters per group) was removed with electric clippers. The vehicle (200 microliters of ethanol) or the test solution (0.02% or 0.1% of the compound of Formula I in ethanol) was pipetted slowly to cover the entire clipped area (9 cm.^2). After 30 daily applications, the hair was clipped from the same area and the hair clippings were collected and weighed in order to measure hair regrowth. The hair weights averaged 119±15 and 109±17 mg. for hamsters treated with 0.02% and 0.1% of the compound of Formula I, respectively, compared to 323±49 mg. for vehicle-treated hamsters.

[6] = after depilation, median score, scale 0 to 4, n=12
[7] = 2.5 mg/kg/day sc for 14 days with testosterone propionate 0.4 mg/kg/day
[8] = 5 mg/kg/day sc for 14 days with testosterone propionate 0.4 mg/kg/day

With CC#C[C@]1(O)CC[C@H]2[C@@H]3C[C@H](C)C4=Cc5[nH]ncc5C[C@]4(C)[C@H]3CC[C@@]21C [Compound of Formula I, 17β-Hydroxy-6α-methyl-17α-propynyl-4-androsteno[3,2-c]-pyrazole] the “Hair Growth Score, Treatment week 1” value [1, 6] was 0, the “Hair Growth Score, Treatment week 2” value [1, 6] was 0 and the “Hair Growth Score, Treatment week 3” value [1, 6] was “.5”. For the same compound, the “Hair Growth Score, Treatment week 4” value [1, 6] was 1, the “Skinfold Thickness, Treatment week 4” value ([1]; mean, n=12, vehicle 2.51) was 1.82 mm and the “Hair Growth Score, Pretreatment week 1” value ([1]; median score, scale 0 to 4 (0 no hair growth, 4 complete regrowth), n=12) was 1. For the same compound, the “Hair Growth Score, Pretreatment week 2” value ([1]; median score, scale 0 to 4, n=12) was 2.5, the “Skin thickness compared with hydrocortisone-treated rats” value ([1]; p<0.02) was “thinner” and the “% Bound (Mean ± SE) of 3H-dihydrotestosterone” value (“% Bound (Mean ± SE)” for short) ([2]; unlabelled antagonist 20 nM, molar ratio 10) was 9.94 ± .45%. The “% Bound (Mean ± SE)” value ([2]; unlabelled antagonist 200 nM, molar ratio 100) was 8.55 ± .56%, the “% Bound (Mean ± SE)” value ([2]; unlabelled antagonist 2000 nM, molar ratio 1000) was 6.30 ± .003% and the “Final Body Weight” value [3, 7] was 99. For the same compound, the “Flank Organ Diameter” value [3, 7] was 4.0 mm, the “Flank Organ Wet Weight” value [3, 7] was 19.5 mg and the “Organ Weights: Adrenals” value [3, 7] was 12.7 mg. For the same compound, the “Organ Weights: Seminal Vesicles” value [3, 7] was 135 mg, the “Organ Weights: Thymus” value [3, 7] was 28 mg and the “Final Body Weight” value [3, 8] was 93. For the same compound, the “Flank Organ Diameter” value [3, 8] was 3.6 mm, the “Flank Organ Wet Weight” value [3, 8] was 15.0 mg and the “Organ Weights: Adrenals” value [3, 8] was 12.3 mg. For the same compound, the “Organ Weights: Seminal Vesicles” value [3, 8] was 107 mg, the “Organ Weights: Thymus” value [3, 8] was 14 mg and the “Average area of the supracaudal glands” value ([4]; 400 micrograms in 10 microliters ethanol topical, control 104±7, p<0.01) was 72±6 sq. mm. The “Changes in weights of seminal vesicles, adrenals or thymus glands” value ([4]; 400 micrograms topical, versus control group) was “No changes”, the “Hair weights (hair regrowth on clipped back area)” value ([5]; 0.02% in ethanol) was 119 ± 15 mg and the “Hair weights (hair regrowth on clipped back area)” value ([5]; 0.1% in ethanol) was 109 ± 17 mg.
